# Patent US20090018134A1, “Compounds - 945” (AstraZeneca AB, priority 2007, published 2009)
# pIC50: −log10 of the molar value.
# Target: T1, mTOR (Homo sapiens, UniProt P42345)
# T1 construct: FLAG; made in house
# Experiment: In Vitro mTOR Kinase Assay (Echo), Test (a)(ii)
# Format: biochemical
# Settings: table of enzyme assay Test (a)(ii); read-out: Test (a)(ii) IC50
# How it was run: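 FLAG-tagged human mTOR truncation (residues 1362-2549) expressed in HEK293 cells and FLAG-purified. Compounds dispensed acoustically, reaction 2 h at room temperature, stopped with EDTA. Phosphorylation of biotinylated peptide detected by AlphaScreen with anti-p70 S6K (T389) antibody overnight; IC50 reported.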
# T1 sequence (P42345 1362-2549): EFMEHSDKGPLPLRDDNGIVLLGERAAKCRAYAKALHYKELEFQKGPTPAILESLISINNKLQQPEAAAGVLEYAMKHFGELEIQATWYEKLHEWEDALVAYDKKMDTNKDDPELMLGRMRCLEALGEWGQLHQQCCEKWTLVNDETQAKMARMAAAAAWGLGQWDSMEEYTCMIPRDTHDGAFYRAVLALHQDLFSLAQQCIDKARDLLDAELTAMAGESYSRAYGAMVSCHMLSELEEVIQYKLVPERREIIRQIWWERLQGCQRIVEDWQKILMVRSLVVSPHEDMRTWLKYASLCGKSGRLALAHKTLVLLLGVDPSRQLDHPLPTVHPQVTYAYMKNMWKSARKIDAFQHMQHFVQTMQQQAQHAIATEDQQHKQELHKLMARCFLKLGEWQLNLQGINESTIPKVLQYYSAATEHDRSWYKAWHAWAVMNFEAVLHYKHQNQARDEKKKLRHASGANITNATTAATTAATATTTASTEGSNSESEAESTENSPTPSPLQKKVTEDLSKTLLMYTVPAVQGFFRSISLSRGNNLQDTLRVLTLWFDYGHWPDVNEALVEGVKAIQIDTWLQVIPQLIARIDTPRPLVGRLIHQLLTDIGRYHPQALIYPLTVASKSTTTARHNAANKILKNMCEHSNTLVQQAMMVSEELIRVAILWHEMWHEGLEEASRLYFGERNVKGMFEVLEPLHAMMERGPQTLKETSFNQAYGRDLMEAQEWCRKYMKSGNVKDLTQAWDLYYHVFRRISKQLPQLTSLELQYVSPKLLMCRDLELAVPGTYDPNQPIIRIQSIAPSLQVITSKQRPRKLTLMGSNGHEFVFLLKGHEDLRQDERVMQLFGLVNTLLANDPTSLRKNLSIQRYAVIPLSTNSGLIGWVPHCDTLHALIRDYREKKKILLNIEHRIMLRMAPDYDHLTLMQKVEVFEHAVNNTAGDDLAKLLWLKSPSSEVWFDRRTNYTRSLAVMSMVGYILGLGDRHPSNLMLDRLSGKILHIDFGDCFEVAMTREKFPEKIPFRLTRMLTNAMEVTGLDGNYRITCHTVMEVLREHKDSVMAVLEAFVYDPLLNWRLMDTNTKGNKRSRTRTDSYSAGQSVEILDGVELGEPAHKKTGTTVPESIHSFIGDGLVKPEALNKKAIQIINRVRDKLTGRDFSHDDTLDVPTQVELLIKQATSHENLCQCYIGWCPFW
row,Structure (SMILES),pIC50
1,"CCNC(=O)Nc1ccc(-c2nc(N3CCOC[C@@H]3C)cc(C3(S(=O)(=O)c4ccccc4)CCOCC3)n2)cc1 [Example 36cz, 3-[4-[4-[4-(benzenesulfonyl)oxan-4-yl]-6-[(3S)-3-methylmorpholin-4-yl]pyrimidin-2-yl]phenyl]-1-ethylurea]",7.42
2,"CN(C)CCNC(=O)Nc1ccc(-c2nc(N3CCOCC3)cc(C3(S(=O)(=O)C4CC4)CCCC3)n2)cc1 [Example 13n, 1-[4-[4-(1-cyclopropylsulfonylcyclopentyl)-6-morpholin-4-ylpyrimidin-2-yl]phenyl]-3-(2-dimethylaminoethyl)urea]",6.00
3,"C[C@H]1COCCN1c1cc(C2(S(=O)(=O)c3ccccc3)CCC2)nc(-c2ccc(NC(=O)NCCC#N)cc2)n1 [Example 36dt, 1-[4-[4-[1-(benzenesulfonyl)cyclobutyl]-6-[(3S)-3-methylmorpholin-4-yl]pyrimidin-2-yl]phenyl]-3-(2-cyanoethyl)urea]",9.43
4,"C[C@H]1COCCN1c1cc(C2(S(=O)(=O)c3ccccc3)CCCC2)nc(-c2ccc(NC(=O)NC3CC3)cc2)n1 [Example 36bw, 1-[4-[4-[1-(benzenesulfonyl)cyclopentyl]-6-[(3S)-3-methylmorpholin-4-yl]pyrimidin-2-yl]phenyl]-3-cyclopropylurea]",8.04
5,"Cn1cc(NC(=O)Nc2ccc(-c3nc(N4CCOCC4)cc(C4(S(=O)(=O)c5ccccn5)CC4)n3)cc2)cn1 [Example 56d, 3-(1-methylpyrazol-4-yl)-1-[4-[4-morpholin-4-yl-6-(1-pyridin-2-ylsulfonylcyclopropyl)pyrimidin-2-yl]phenyl]urea]",8.37
6,"C[C@H]1COCCN1c1cc(C2(S(=O)(=O)C3CC3)CCC2)nc(-c2ccc(NC(=O)NCCC#N)cc2)n1 [Example 36g, 3-(2-cyanoethyl)-1-[4-[4-(1-cyclopropylsulfonylcyclobutyl)-6-[(3S)-3-methylmorpholin-4-yl]pyrimidin-2-yl]phenyl]urea]",8.08

# Now from value to compound:
row,pIC50,Structure (SMILES)
1,8.61,"CC[C@H]1COCCN1c1cc(C2(S(=O)(=O)c3ccccc3)CC2)nc(-c2ccc(NC(=O)NCCO)cc2)n1 [Example 74b, 1-[4-[4-[1-(benzenesulfonyl)cyclopropyl]-6-[(3S)-3-ethylmorpholin-4-yl]pyrimidin-2-yl]phenyl]-3-(2-hydroxyethyl)urea]"
2,7.91,"C[C@H]1COCCN1c1cc(C2(S(=O)(=O)c3ccncc3)CCC2)nc(-c2ccc(NC(=O)NC(C)(C)CO)cc2)n1 [Example 83c, 3-(1-hydroxy-2-methylpropan-2-yl)-1-[4-[4-[(3S)-3-methylmorpholin-4-yl]-6-(1-pyridin-4-ylsulfonylcyclobutyl)pyrimidin-2-yl]phenyl]urea]"
3,7.42,"CCNC(=O)Nc1ccc(-c2nc(N3CCOC[C@@H]3C)cc(C3(S(=O)(=O)c4c(C)nn(C(F)F)c4C)CC3)n2)cc1 [Example 75b, 3-[4-[4-[1-[1-(difluoromethyl)-3,5-dimethylpyrazol-4-yl]sulfonylcyclopropyl]-6-[(3S)-3-methylmorpholin-4-yl]pyrimidin-2-yl]phenyl]-1-ethylurea]"
4,7.43,"Cc1nn(C(F)F)c(C)c1S(=O)(=O)C1(c2cc(N3CCOC[C@@H]3C)nc(-c3ccc(NC(=O)NCCF)cc3)n2)CC1 [Example 75e, 1-[4-[4-[1-[1-(difluoromethyl)-3,5-dimethylpyrazol-4-yl]sulfonylcyclopropyl]-6-[(3S)-3-methylmorpholin-4-yl]pyrimidin-2-yl]phenyl]-3-(2-fluoroethyl)urea]"
5,8.40,"CCS(=O)(=O)C1(c2cc(N3CCOC[C@@H]3C)nc(-c3ccc(NC(=S)NCCO)cc3)n2)CC1 [Example 88d, 1-[4-[4-(1-ethylsulfonylcyclopropyl)-6-[(3S)-3-methylmorpholin-4-yl]pyrimidin-2-yl]phenyl]-3-(2-hydroxyethyl)thiourea]"
6,8.47,"C[C@H]1COCCN1c1cc(C2(S(=O)(=O)c3ccccc3F)CC2)nc(-c2ccc(NC(=O)NC3CC3)cc2)n1 [Example 58a, 3-cyclopropyl-1-[4-[4-[1-(2-fluorophenyl)sulfonylcyclopropyl]-6-[(3S)-3-methylmorpholin-4-yl]pyrimidin-2-yl]phenyl]urea]"
